# Residues, ends and D or L forms follow the SMILES beside them.
# Columns and labels:
# [1] = system: HIV-1IIIB; assay: HIV-1 antiviral assay (CPE reduction) in CEM-SS cells; type: cell-based; conditions: peptide 10 micrograms per ml; 6 days post-infection; MTS readout
# [2] = system: CEM-SS cells; assay: Cytotoxicity (MTS cell viability) in the HIV-1 assay; conditions: peptide 10 micrograms per ml
# [3] = Cell viability (dye uptake) in the HBV assay; type: cell-based; conditions: human, HepG2-2.2.15 cells, peptide 10 micrograms per ml
# [4] = in vitro; conditions: human, CEM-SS cells (uninfected; cells plus peptide only)
# [5] = system: Human A549 cells; assay: Propidium iodide cell cycle assay; type: cell-based; conditions: 10 micrograms per ml, 24 hours, FACS
# [6] = system: Primary Human endothelial cells (HUVEC); assay: Endothelial cell migration assay; type: cell-based; conditions: 10 micrograms per ml, 22 hours
# [7] = system: macrophages differentiated from human PBMC, TNF alpha production; assay: TNF alpha production assay (LPS-stimulated macrophages, ELISA); type: cell-based; conditions: 10 micrograms per ml, lipopolysaccharide 200 ng/ml, overnight
# Text: Not stimulated macrophages served as negative background control.
# [8] = system: Human Peripheral Blood Mononuclear Cells (PBMC), B cell proliferation; assay: B cell proliferation assay (SAC plus IL-2 stimulated PBMC, 3H-thymidine); type: cell-based; conditions: 10 micrograms per ml
# [9] = in vitro; conditions: human, MRC-5 cells (embryonal lung fibroblasts)
# [10] = system: hepatitis B virus (HBV) ayw strain; assay: HBV replication assay in HepG2-2.2.15 cells (TaqMan PCR of secreted HBV DNA); type: cell-based; conditions: peptide 10 micrograms per ml, six days, HBV DNA in supernatant
# [11] = system: Human A549 cells; assay: Apoptosis prevention assay (C2 ceramide, Annexin-5); type: cell-based; conditions: 10 micrograms per ml pretreatment 30 min
# Text: Human A549 cells (carcinomic human alveolar basal epithelial cells) were utilized in the experiments employing the Annexin-5 apoptosis assay.
# [12] = system: Human Peripheral Blood Mononuclear Cells (PBMC), T cell proliferation; assay: T cell proliferation assay (PHA-stimulated PBMC, 3H-thymidine); conditions: 10 micrograms per ml
# [13] = system: HUVEC; assay: Endothelial tube formation assay; type: cell-based, human; conditions: 10 micrograms per ml, 20 hours
# Text: Positive control was vehicle only.
# [14] = system: HCMV strain AD169; assay: HCMV plaque reduction assay in MRC-5 cells; conditions: HCMV AD169 in MRC-5 cells; peptide 10 micrograms per ml; 7-10 days
# [15] = system: RAW 264.7 cells; assay: Phagocytosis assay (Fluorescein-labeled Escherichia coli, flow cytometry); type: cell-based, mouse; conditions: 10 micrograms per ml, Fluorescein-labeled E. coli
# Experimental: The samples were then analyzed by flow cytometry to determine the amount of phagocytosis as a function of brightness (the greater the phagocytic activity, the more fluorescence in the macrophage population). Data are reported as % positive and the mean fluorescence intensity (MFI) of positively stained cells.
# [16] = system: spleen cells of Ovalbumin-immunized Balb/c mice; assay: Th1/Th2 cytokine profiling assay (Ovalbumin-restimulated spleen cells, CBA kit); type: cell-based, mouse; conditions: 10 micrograms per ml; Ovalbumin restimulation; 72 hours
# [17] = system: Human A549 cells; assay: Apoptosis induction assay (Annexin-5); type: cell-based; conditions: 24 hours
# Experimental: Human A549 cells (carcinomic human alveolar basal epithelial cells) were utilized in the experiments employing the Annexin-5 apoptosis assay. […] Test peptide-micrograms per ml—were exposed for 24 hours to the A549 cells before they were analyzed for signs of apoptosis.
# [18] = system: human peripheral blood mononuclear cells (PBMC), cyclic AMP generation; assay: cAMP induction assay (ELISA); type: cell-based; conditions: 10 min at 37° C., forskolin 50 micrograms per ml
# Experimental: The cAMP kit was used as an immunoassay for the quantitative determination of cyclic AMP generation in human peripheral blood mononuclear cells (PBMC). PBMC were placed in 96-well microtitier plates (50 microliters of cells at 4×10^6/ml) and 50 microliters of medium alone (background control), forskolin (cAMP positive control; 50 micrograms per ml), or test peptide were added. […] NaOH was added to neutralize the samples. Plates were centrifuged for 15 min at 2500 rpm and the supernatants removed. The supernatants (diluted 2-fold in assay buffer) were then assayed for the levels of cAMP by ELISA.
# [19] = system: HepG2-2.2.15 cells; assay: Cell viability (dye uptake) in the HBV assay; type: cell-based; conditions: peptide 10 micrograms per ml
compound,measurement,setting,value
"Cc1cn([C@H]2C[C@H](N=[N+]=[N-])[C@@H](CO)O2)c(=O)[nH]c1=O [AZT, reference compound]",% CPE reduction in HIV-1 infected CEM-SS cells,[1],99%
same,% Cell viability,[2],97%
CC[C@H](C)[C@H](NC(=O)[C@H](C)NC(=O)CNC(=O)[C@H](CCCNC(=N)N)NC(=O)[C@H](C)NC(=O)[C@H](CC(C)C)NC(=O)[C@H](CCC(=O)O)NC(=O)[C@H](CC(C)C)NC(=O)[C@H](C)NC(=O)[C@@H](N)CCC(=O)O)C(=O)N[C@@H](Cc1ccccc1)C(=O)N[C@@H](CCC(N)=O)C(=O)N[C@@H](C)C(N)=O [BINP] (H-EALELARGAIFQA-NH2),"viability at 144 h, 10 micrograms per ml",[3],96.9%
same,viability at 10 micrograms per ml,[4],99.1%
same,Cell cycle analysis G0/G1,[5],57.9
same,Cell cycle analysis G2/M,[5],12.2
same,Cell cycle analysis S,[5],29.9
same,% inhibition of migration,[6],8%
same,% of LPS induction,[7],102.3%
same,% of SAC/IL2 induced control,[8],96.5%
same,viability at 144 h,[9],99.7%
same,% inhibition of HBV replication in HEP G2 cells,[10],8.2%
same,% prevention of ceramide induced apoptosis,[11],0.0%
same,% CPE reduction in HIV-1 infected CEM-SS cells,[1],0.0%
same,% of PHA induced Control,[12],96.2%
same,% inhibition of tube formation,[13],−1%
same,% plaque reduction,[14],1.0%
same,% of control phagocytosis,[15],134.3%
same,IFNγ spleen cells; TH1 response (% of control),[16],133.9 % of control
same,IL-2 spleen cells (% of control),[16],0.0 % of control
same,IL-4 spleen cells; TH2 response (% of control),[16],0.0 % of control
same,IL-5 spleen cells; TH2 response (% of control),[16],50.3 % of control
same,TNF-a spleen cells; TH1 response (% of control),[16],97.0 % of control
same,% of induction,[17],0.2%
same,% of Forskolin (positive control) induced cAMP formation,[18],44.3%
"Nc1ccn([C@@H]2CS[C@H](CO)O2)c(=O)n1 [Compound 3TC, Lamivudine, reference compound]",% Cell viability,[19],95.8%

# From patent US20100256043A1, “USE OF A PEPTIDE AS A THERAPEUTIC AGENT” (priority 2007, published 2010)
